Data on 9 compounds can be found in patent US20250017938A1, “COMBINATION THERAPIES OF FASN INHIBITORS WITH THYROID HORMONE RECEPTOR AGONISTS” (Sagimet Biosciences Inc., priority 2023, published 2025).

Assay [1] concerns the target FASN enzyme isolated from SKBr3 cells (Homo sapiens (Human), UniProt P49327). Kind of assay: FASN biochemical activity (fluorescence measurement of CoA release, CPM dye).
For assay [2], the system named is primary isolated human stellate cells (HSC). As to the kind of experiment: Primary human hepatic stellate cells stimulated with TGF-β1, total collagen (in vitro fibrosis study). Type of assay: cell-based. As to conditions: primary human hepatic stellate cells, 10 ng/ml TGF-β, 4 days.
Method: Primary isolated human stellate cells (HSC) were investigated in the study. The cells were maintained under standard culture conditions and in established culture medium.
Study Model: Viability screening and in vitro fibrosis study, 24 well plate format, 4 day stimulation with recombinant human TGF-β1. In this study, 2.5 and 10 ng/ml TGF-β1 were used.
(§1) Primary HSCs were seeded on t=day-1 and cultured in 24 well plates for 24 hours. […] Cells were incubated for an additional 96 hours (t=day 4). Conditioned medium samples were collected for expression analysis of secreted proteins. All wells were used for an alamarBlue assay to assess cell viability/metabolic activity. A separate plate was used at t=day 0 as reference for the alamarBlue assay. Next, the cell-matrix fraction was collected for measurement of total collagen and cell protein levels.
Both test compounds were dissolved in DMSO. Working concentrations were prepared from a stock concentration that is 1000-fold that of the highest working concentration. All controls were incubated with the same DMSO concentration as that present in the highest working concentration.
Total Collagen assay was performed according to the manufacturer's protocol.
Total Protein assay, for use with the Total Collagen assay, was performed according to the manufacturer's protocol. Protein levels were used to correct for differences in cell contents between samples.
Significance of differences between the groups was calculated either parametrically or non-parametrically, using the computer program SPSS. For nonparametric calculations, a Kruskal-Wallis test for several independent samples was used, followed by a Mann-Whitney U-test for independent samples. For parametric calculations, a One-way ANOVA for multiple comparisons was used, followed by Dunnett or Bonferroni's correction.
The test system of assay [3] is Male C57BL/6J Gubra-Amylin-MASH (GAN) diet-induced obese mice. Kind of assay: Gubra-Amylin-MASH (GAN) diet-induced obese mice with biopsy-confirmed MASH, 6 weeks treatment. As to conditions: 6-week treatment; for response rate (RR) for reduction of NAS ≥2-points: TVB-3664 5 mg/kg, resmetirom 3 mg/kg PO QD. Type of assay: in vivo, mouse. The method, then: This study was designed to evaluate FASN inhibitor alone and in combination with RES on liver histology in biopsy-confirmed MASH mice.
Method: Male C57BL/6J Gubra-Amylin-MASH (GAN) diet-induced obese mice with histologically confirmed NAS (≥5) and fibrosis stage (F1-F3) were randomized and treated with either TVB-3664 (a surrogate FASN inhibitor for denifanstat, 5 mg/kg, PO, QD) or resmetirom (RES; MGL-3196)(3 mg/kg, PO, QD) individually or in combination for 6 weeks (n=10-12 for each group, Gubra, Denmark). Treatment groups are NC (normal chow diet control); VEH (MASH vehicle control); FASN (TVB-3664, FASN inhibitor, surrogate for denifanstat); RES (resmetirom) and COMBO (combination of TVB-3664 and resmetirom).

Assay [4] has as its system Male Ldlr -/-. Leiden mice fed with fast food diet (FFD). Kind of assay: LDL receptor knockout (Ldlr-/-.Leiden) NASH mice on fast food diet, 10 weeks treatment. As to conditions: for plasma ALT/AST / plasma total cholesterols / plasma triglycerides: TVB-3664 5 mg/kg, resmetirom 3 mg/kg PO QD alone or in combination, 4 weeks, sustained to 10 weeks; for LDL-C / VLDL-C: lipoprotein analysis. Type of assay: in vivo, mouse. The method, then: This study was designed to evaluate FASN inhibitor alone and in combination with resmetirom on plasma biomarkers and liver histology in LDL receptor knockout (Ldlr−/−. Leiden) NASH mice. FASN inhibitor and resmetirom were also evaluated in vitro in hepatic stellate cells (HSCs) for direct anti-fibrotic effects.
Male Ldlr −/−. Leiden mice were fed with fast food diet (FFD) for 18 weeks to induce NASH features and treated with either TVB-3664 (a surrogate FASN inhibitor for denifanstat, 5 mg/kg, PO, QD) or THRb agonist resmetirom (MGL-3196, 3 mg/kg, PO, QD) alone or in combination for 10 weeks. Endpoints included liver enzymes, lipids and liver histology. Primary human HSCs were stimulated by TGF-b1 and treated with denifanstat or resmetirom at various concentrations (TNO, Netherlands).

Assay [5] deals with primary isolated human stellate cells (HSC). As to the kind of experiment: Primary human hepatic stellate cells stimulated with TGF-β1, PAI-1 secretion. Type of assay: cell-based. As to conditions: primary human HSCs, TGF-b1-stimulated.
Method: as §1
Assay [6] has as its system NASH/MASH. As to conditions: NASH/MASH trials; cited from earlier work.
In assay [7] the test system is C57BL/6J mice fed a high-fat/fructose/cholesterol diet. As to the kind of experiment: Reversal of established diet-induced, biopsy-confirmed NASH in mice (HFFCD 44 weeks + 8 weeks treatment). Type of assay: in vivo, mouse. As to conditions: pirfenidone co-administered with Compound 002-386, 8 weeks. An excerpt: C57BL/6J mice were fed a high-fat/fructose/cholesterol diet (HFFCD) for 44 weeks. For an additional eight weeks, animals continued a high-fat/fructose/cholesterol diet and received oral once-per-day treatments of either Compound 002-386, the anti-fibrotic pirfenidone, both Compound 002-386 and pirfenidone, or vehicle control. At the end of the study, analyses included histological assessment (NAFLD Activity Score (NAS) and Fibrosis Stage), gene expression (liver) total triglyceride and cholesterol content (liver and plasma), levels of alanine transaminase (ALT), and aspartate transaminase (AST) in plasma and serum cytokine levels. […]
Blood and plasma assays (triglycerides (TG), total-cholesterol (TC), alanine transaminase (ALT), aspartate transaminase (AST)): Blood samples were collected in heparinized tubes and plasma was separated and stored at −80° C. until analysis. TG, TC, ALT, AST were measured using commercial kits (Roche Diagnostics, Germany) on the Cobas™ C-501 autoanalyzer according to the manufacturer's instructions.
NAFLD activity score (NAS) and fibrosis stage: Liver samples were fixed in formalin, paraffin embedded, and sections were stained with hematoxylin and eosin (H&E) and Sirius Red. Samples were scored for NAS and fibrosis stage (outlined below) using of the clinical criteria outlined by Kleiner et al. 2005. […]

Assay [8] relates to NASH/MASH. As to conditions: cited from earlier work.

SMILES strings stand for the structures.

The term IC50 denotes the concentration that inhibits the measured activity by half. The low end stands for inhibition by little substance, the high end for a need for much substance. In turn, `N#Cc1ccc(C2(F)CCN(C(=O)c3ccc(Cl)c(NC(=O)c4ccc(N5CCC5)nc4)c3)CC2)nc1` [Compound 001-57] registered an IC50 in assay [1] of 30 nM.
On the same count and under the same terms, then `CCc1cc(C)c(-c2ncc(C3CCOC3)[nH]2)cc1C(=O)N1CCC(c2ccc(C#N)cc2)CC1` (stereo not shown) [Compound 001-192], with 300 nM.
The same measure, in the same setting: then `CCc1nnc(-c2cc(C(=O)N3CCC(c4ccc(C#N)cc4)CC3)c(C)cc2C2CC(F)(F)C2)o1` [Compound 001-231], with 300 nM; and `CC(C)CNC(=O)Nc1cc(C(=O)N2CCC(c3ccc(C#N)cn3)CC2)cnn1` [Compound 001-305], with > 50000 nM.
Turning to `CC(C)c1cc(Oc2c(Cl)cc(-n3nc(C#N)c(=O)[nH]c3=O)cc2Cl)n[nH]c1=O` [Compound A, resmetirom], in assay [2], the collagen production entry is “did not display the same effect”. In assay [3], the “lobular inflammation, 1-point RR” value is 8% and the “steatosis, RR for 1-point reduction” value worked out at 50%.
Turning to `COCc1[nH]c(C(F)(F)F)nc1-c1cc(C(=O)N2CC(c3ccc(C#N)cc3)C2)c(C)cc1C` [TVB-3664], in assay [4], the “plasma ALT/AST” value is listed as “rapidly reduced”, the plasma total cholesterols entry is reported as “rapidly reduced”, the plasma triglycerides result is on record as “rapidly reduced” and the LDL-C entry was “significantly reduced”. Also, in assay [4], the VLDL-C entry is given as “significantly reduced”. In assay [3], the “lobular inflammation, 1-point RR” value stood at 42%; the “steatosis, RR for 1-point reduction” value is on record as 17%; the “response rate (RR) for reduction of NAS ≥2-points” value amounted to 33%.
As for `Cc1nnc(-c2cc(C(=O)N3CCC(c4ccc(C#N)cc4)CC3)c(C)cc2C2CCC2)[nH]1` [denifanstat], in assay [2], the collagen production result was “decreased”. In assay [5], the “plasminogen 1 (PAI-1) secretion” value is reported as “decreased”. Besides, the “liver fat and biomarkers associated with inflammation and fibrosis” value in the assay with NASH/MASH [6] is “improvements in liver fat and biomarkers associated with inflammation and fibrosis”.
Turning to `Cc1ccc(=O)n(-c2ccccc2)c1` [pirfenidone], in assay [7], the liver fibrosis entry is recorded as “further reduced liver fibrosis”.
On to `CC(C)c1cc(Oc2c(Cl)cc(-n3nc(C#N)c(=O)[nH]c3=O)cc2Cl)n[nH]c1=O` [resmetirom], for which the “plasminogen 1 (PAI-1) secretion” value in assay [5] is “not”. Also, in assay [4], the “plasma ALT/AST” value is recorded as “rapidly reduced”, the plasma total cholesterols result is “rapidly reduced”, the plasma triglycerides entry is “rapidly reduced” and the LDL-C result is on record as “significantly reduced”. For the same compound, the VLDL-C entry in assay [4] is “significantly reduced”. In addition, the “response rate (RR) for reduction of NAS ≥2-points” value in assay [3] is given as 25%. Besides, in the assay with NASH/MASH [8] (Phase III clinical trial), the “NASH/MASH resolution and fibrosis improvement” value was “significant NASH/MASH resolution and fibrosis improvement”. The histology response rates in the assay with NASH/MASH [8] (human, in vivo) is recorded as < 50%.
